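Grown in 96-well plates, cells were treated for 48 hours with each compound at five concentrations. Insufficient inhibition: endpoint recorded as highest concentration tested. Abbreviation: GI50, concentration required for 50% inhibition of growth. TGI is the concentration that stops growth completely.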
How the values were obtained:
Assay in all cases: NCI-60 cell line screen, 48 h
NCI/ADR-RES ovarian = test system: NCI/ADR-RES ovarian
OVCAR-3 ovarian = test system: OVCAR-3 ovarian
SK-MEL-5 melanoma = test system: SK-MEL-5 melanoma
SF-539 CNS = test system: SF-539 CNS
NCI-H460 lung = test system: NCI-H460 lung
NCI-H226 lung = test system: NCI-H226 lung
ACHN renal = test system: ACHN renal
BT-549 breast = test system: BT-549 breast
DMS 273 small cell lung = test system: DMS 273 small cell lung
DLD-1 colon = test system: DLD-1 colon

SMILES	GI50 (NCI/ADR-RES ovarian) [µM]	TGI (NCI/ADR-RES ovarian) [µM]	GI50 (OVCAR-3 ovarian) [µM]	TGI (OVCAR-3 ovarian) [µM]	GI50 (SK-MEL-5 melanoma) [µM]	TGI (SK-MEL-5 melanoma) [µM]	GI50 (SF-539 CNS) [µM]	TGI (SF-539 CNS) [µM]	GI50 (NCI-H460 lung) [µM]	TGI (NCI-H460 lung) [µM]	GI50 (NCI-H226 lung) [µM]	TGI (NCI-H226 lung) [µM]	GI50 (ACHN renal) [µM]	TGI (ACHN renal) [µM]	GI50 (BT-549 breast) [µM]	TGI (BT-549 breast) [µM]	TGI (DMS 273 small cell lung) [µM]	TGI (DLD-1 colon) [µM]
CCCC(=O)Oc1ccc(/C(=C(\C)c2ccc(Cl)cc2)c2ccc(OCCN(CC)CC)cc2)cc1	4.25	16.5	6.98	21.4	1.75	3.21	1.94	3.98	2.12	4.4	8.8	25	3.39	11.9	4.85	18.9		
O=CNC(Cc1cnc[nH]1)C(=O)O (stereo unspecified)		> 100		> 100		> 100		> 100		> 100		> 100		> 100		> 100		
O=C(CSSCC(=O)c1ccc(Cl)cc1)c1ccc(Cl)cc1	2.69	13.1	5.39	26.1	3.32	10.5	7.36	23.8	3.35	26.9	11.7	30.7	8.75	24.1	8.92	39.9		
C=C1C(=O)OC2CC1C(OC(=O)/C=C/c1ccccc1)C/C(C)=C/CC/C(C)=C/CCC2(C)O (stereo unspecified)		9.4		2.87		3.68		2.83		2.74		3.57		3.08		2.8		
COc1ccc(/C=C\c2cc(OC)c(OC)c(OC)c2)cc1NC(=O)/C=C/c1ccc(OC)c(OC)c1	0.949	> 100	6.41	> 100	2.89	> 100	3.1	52.6	3.46	> 100	4.03	> 100	5.25	> 100	7.7	> 100		
Cc1cc(NS(=O)(=O)c2ccc(NC(=O)c3ccc(Cl)c4c(Nc5ccc(S(=O)(=O)Nc6cc(C)on6)cc5)c5ccccc5nc34)cc2)no1				33.4		55.4		32.3		53.9				53.7			42	
Cc1nc(-n2nc(-c3ccccc3)cc2-c2ccccc2)sc1C(=O)CC(=O)C(=O)Nc1ccc(Cl)c(Cl)c1				> 100				> 100		> 100		> 100		> 100			> 100	> 100
Cc1cc(NC(=O)NCCOc2ccc(N3C(N)=NC(N)=NC3(C)C)cc2Cl)ccc1S(=O)(=O)F	> 100	> 100	5.24	> 71	1.19	11.4	2.93	18.1	0.391	17.6	8.57	> 100	25	> 100	6.31	> 76.8		
COc1ccc(Cn2cc3c(c2-c2ccccc2)CCc2cnoc2-3)cc1	0.0462	11.9	0.137	0.509	0.0479	0.504	0.149	0.49	0.25	2.12	0.476	> 100	0.215	> 100	0.389	> 100		
COc1ccc(C2=Nn3c(nnc3-c3ccc(F)c(Cl)c3)SC2)cc1	> 100	> 100	> 100	> 100	> 100	> 100	> 100	> 100	> 100	> 100	> 100	> 100	> 100	> 100	> 100	> 100		
O=[N+]([O-])c1ccc(Sc2cccc[n+]2[O-])c2nonc12	5.73	> 52.7	1.07	2.48	5.72	18.7	19.3	54.3	3.64	25.2	21	> 65.3	3.67	14.2	12.7	25.8		
O=C1/C(=C/c2ccc(F)cc2)COc2ccc(O)c(O)c21	1.96	7.85	0.864	9.4	3.16	11.7	1.28	2.7	3.33	> 100	2.47	7.08	1.43	2.89	2.96	8.73		
CC(=O)c1cc2c(Br)cccc2oc1=O		> 100		> 100		> 100		> 100		> 100		> 100		> 100		> 100		
O=C(CCN1CCCC1)Nc1ccc2c(Nc3ccc(F)cc3)c3ccccc3nc2c1	2.11	7.4	1.68	4.21	1.53	2.88	1.61	3.05	0.211	1.38	1.41	3.21	0.526	1.98	1.73	4.28		
COC(=O)NC1(NC(=O)OC)NC(=O)c2ccccc2N1		> 100		> 100		> 100		> 100		> 100		> 100		> 100		> 100		
Nc1c(C(=O)c2cccc(-c3cccnc3)c2)cnn1-c1ccc(F)cc1	> 20.5	> 25	> 25	> 25	> 25	> 25	> 25	> 25	> 25	> 25	> 16.1	> 25	> 25	> 25	> 13.2	> 25		
C[C@H]1C[C@@H](n2c(Nc3ccc(OC(F)(F)F)cc3)nc3cc(CCC(=O)O)ccc32)CC(C)(C)C1	11.7	27.5	13	25.8	5.38	17.9	13.1	37.7	9.74	24.7	17.8	42.4	13.1	27.1	3.13	12		
